Earlier results as cited in US20170128401A1, “DIETARY COMPOSITION FOR IMPROVED PERFORMANCE” (priority 2015, published 2017).

Assays:
healthy adults [1] = settings: in vivo
healthy adults [2] = settings: in vivo; remark: listed apart in the source
subjects = settings: 400 mg of phosphatidylserine
[3] = 750 mg dose; 85% VO2 max

Row | Compound | carbohydrate absorption (healthy adults [1]) | VO2max (healthy adults [2]) | decrease in wrong answers (test accuracy) (subjects) | increase in correct answers (test accuracy) (subjects) | increase speed of calculations (subjects) | increase time to exhaustion in anaerobic events [3]
1 | O=C(O[C@@H]1Cc2c(O)cc(O)cc2O[C@@H]1c1cc(O)c(O)c(O)c1)c1cc(O)c(O)c(O)c1 [EGCG, epigallocatechin gallate] | significantly decreased | increased | – | – | – | –
2 | phosphatidylserine | – | – | 39% | 13% | 20% | 29%+/−8
